{"source": "patent US12529694B2", "about": "“Human in vitro cardiotoxicity model” (Brown University, priority 2019, dated 2026)", "key": {"hiPSC-CM microtissues": {"tested_on": "hiPSC-CM microtissues", "settings": "human", "excerpt": "Fabrication of microtissue mold hydrogels and 3D microtissue culture. Scaffold-free three-dimensional microtissues (spheroid in shape, also called spheroids and/or organoids) are generated using non-adhesive agarose gels with cylindrical microwells with hemispherical bottoms to guide self-assembly. Sterilized 2% (wt/vol) agarose is pipetted into molds designed for 24-well plates with 800-μm-diameter rounded pegs (Microtissues, Providence, RI, USA). After being cooled to room temperature (˜5 minutes), the agarose gels are separated from the molds and transferred to single wells of 24-well plates. For equilibration, 1 mL medium is added to each well. Hydrogels are equilibrated at least one hour or overnight at 37° C. in a humidified incubator with 5% CO2. […] Medium is then added to each well (5 ml), and cells are cultured for 6-8 days with electrical field stimulation with a 1 Hz, 10.0 V, 4.0 ms duration bipolar pulse train for the full three-dimensional culture period (C-Pace EP, IonOptix).\nOptical mapping and automated action potential duration analysis. The inventors used an Olympus MVX10 microscope to image 1.2×1.2-mm^2 regions. […] Fluorescence images were filtered using nonlinear bilateral filter (spatial filter: 5×5 window, temporal filter: 21 point window) to preserve action potential upstrokes from blurring. Typically, four microtissues were recorded simultaneously/scan at this magnification. […] The pixels with action potentials were identified from Fast Fourier transformation (FFT) of fluorescence signals. After appropriate thresholding and image segmentation, the region of each microtissue was grouped and the fluorescence signals from the pixels in the same microtissue were average and used for action potential analysis.\nValidation and screening of toxicants for arrhythmogenic risk. […] Concentrations are selected to span human exposure levels or blood serum levels and quantify dose-dependent changes over a wide range (with a goal of more than 10,000× change in concentration and at least 4-6 doses). […]"}, "[1]": {"assay": "Clinical exposure of ranolazine (FDA documentation)", "format": "in vivo, human", "settings": "dose of 1000 mg b.i.d., bracketed conversion"}, "[2]": {"tested_on": "late sodium current (INa,late)", "settings": "read-out: IC50, late sodium current (INa,late) block; cited from earlier work"}, "[3]": {"settings": "cited from earlier work"}, "INCX": {"tested_on": "INCX", "settings": "cited from earlier work"}, "hiPSC-CMLP microtissues": {"tested_on": "hiPSC-CMLP microtissues", "excerpt": "Cardiomyocyte differentiation. The inventors differentiated cardiomyocytes (CMs) from human pluripotent stem cells; either human embryonic stem cells (hESCs, e.g. line RUES2) or human induced pluripotent stem cells (hiPSCs; Gibco human episomal iPSCs from CD34+ cord blood, ThermoFisher Scientific, NCRM-5 human episomal iPSCs from CD34+ cord blood, NIH Center for Regenerative Medicine, WTC11 GM25256 human episomal iPSCs from dermal fibroblasts, The Gladstone Institutes, UCSF) in high-density monolayer cultures. […] Human pluripotent stem cells were cultured on plates coated with truncated human vitronectin (Life Technologies) in Essential 8 medium (ThermoFisher). […] Medium was changed daily until initiation of differentiation (day 0), when cells were approximately 60-90% confluent. […] C-59 (Tocris) or 1 μM XAV939 (Tocris), all chemical Wnt inhibitors, at day 3. […] Some differentiating cells received 100 ng/ml neuregulin-1β (NRG1) daily on days 5-18 (until use in engineered tissues) and/or in engineered tissues. Some engineered tissues received 100 nM insulin-like growth factor 1 (IGF1) daily and/or 100 ng/ml NRG1 daily in engineered tissues. […] Some experiments used unpurified cells as controls and were matched for duration of culture for experiments. Cells undergoing metabolic-based lactate purification were assessed for density and beating visually, and left in the wells of the high-density monolayer cultures for lactate purification if density was high and beating was uniform across large areas of the wells. Cells not meeting these requirements for density and beating were replated at high density, 5-6×10^6 cells/cm^2 on Matrigel-coated 6 well plates in RPMI+B27 medium after 10-20 days of differentiation. All cells undergoing lactate purification were not fed for 4 days as a starvation period to encourage a switch in metabolism from glycolysis to oxidative phosphorylation in the cardiomyocytes, which are capable of this type of metabolism, while non-cardiomyocytes have a lower ability to switch the metabolic phenotype and therefore die, resulting in more pure populations of cardiomyocytes. […] Lactate purified cells were fed with RPMI+B27 until robust beating returned or appeared. Cardiac purity is assessed by flow cytometry analysis.\nFabrication of microtissue mold hydrogels and 3D microtissue culture. Scaffold-free three-dimensional microtissues (spheroid in shape, also called spheroids and/or organoids) are generated using non-adhesive agarose gels with cylindrical microwells with hemispherical bottoms to guide self-assembly. Sterilized 2% (wt/vol) agarose is pipetted into molds designed for 24-well plates with 800-μm-diameter rounded pegs (Microtissues, Providence, RI, USA). After being cooled to room temperature (˜5 minutes), the agarose gels are separated from the molds and transferred to single wells of 24-well plates. For equilibration, 1 mL medium is added to each well. Hydrogels are equilibrated at least one hour or overnight at 37° C. in a humidified incubator with 5% CO2. […]\nOptical mapping and automated action potential duration analysis. […] Fluorescence images were filtered using nonlinear bilateral filter (spatial filter: 5×5 window, temporal filter: 21 point window) to preserve action potential upstrokes from blurring. Typically, four microtissues were recorded simultaneously/scan at this magnification."}, "peak ICa": {"tested_on": "peak ICa", "settings": "cited from earlier work"}, "late ICa": {"tested_on": "late ICa", "settings": "cited from earlier work"}, "rodents": {"tested_on": "rodents", "settings": "greater sensitivity in female rats than male rats; increased with isoproterenol stimulation; cited from earlier work"}, "[4]": {"tested_on": "human cardiac fibroblasts", "assay": "Biochemical myofibroblast activation of human cardiac fibroblasts, αSMA immunofluorescence normalized by vimentin", "format": "cell-based", "settings": "10 ng/ml TGF-β1 for forty-eight hours; passage 4 hCFs", "description": "The inventors next assessed the ability of human cardiac fibroblasts to be further activated via biochemical stimulation by treating passage 4 human cardiac fibroblasts with 10 ng/ml TGF-β1 for forty-eight hours. Cells were fixed and fluorescently labeled for αSMA and vimentin."}}, "note": "Like-named read-outs stand apart in the source and are kept apart here."}
{"molecule": "Cn1c(=O)c2c(ncn2C)n(C)c1=O", "note": "[caffeine]", "values": [{"measurement": "action potential duration", "setting": "hiPSC-CM microtissues; 5 mM", "value": "90.5 ± 22.3", "unit": "ms"}]}
{"molecule": "CC(C)NCC(O)c1ccc(O)c(O)c1", "note": "(stereo not drawn) [isoproterenol]", "values": [{"measurement": "action potential duration", "setting": "hiPSC-CM microtissues; 100 nM", "value": "120.1±10.5"}, {"measurement": "average reduction of APD80", "setting": "hiPSC-CM microtissues; 100 nM", "value": 45, "unit": "ms"}]}
{"molecule": "COc1ccccc1OCC(O)CN1CCN(CC(=O)Nc2c(C)cccc2C)CC1", "note": "(stereo not drawn) [ranolazine]", "values": [{"measurement": "Cmax", "setting": "[1]; read-out: mean steady-state Cmax [in blood serum]", "value": 6, "unit": "µM"}, {"measurement": "Cmax", "setting": "[1]; human, serum, read-out: 95% of Cmax values", "value": "0.98 to 14.2", "unit": "µM"}, {"measurement": "IC50", "setting": "[2]", "value": 5.9, "unit": "µM"}, {"measurement": "mean steady-state Cmax [in blood serum]", "setting": "[3]; dose of 1000 mg b.i.d.", "value": 2569, "unit": "ng/mL"}, {"measurement": "therapeutic concentration", "setting": "[3]; human, in vivo", "value": "1 to 10", "unit": "µM"}, {"measurement": "IC50", "setting": "INCX", "value": 91, "unit": "µM"}, {"measurement": "APD changes over dose-response", "setting": "hiPSC-CMLP microtissues", "value": "moderate APD changes within a safety criteria of QT prolongation"}, {"measurement": "IC50", "setting": "peak ICa", "value": 296, "unit": "µM"}, {"measurement": "IC50", "setting": "late ICa", "value": 50, "unit": "µM"}]}
{"molecule": "CC(C)(c1ccc(O)cc1)c1ccc(O)cc1", "note": "[BPA, bisphenol-A]", "values": [{"measurement": "concentration promoting arrhythmias", "setting": "rodents", "value": 0.001, "unit": "µM"}, {"measurement": "APDtri (APD80-APD30)", "setting": "hiPSC-CMLP microtissues", "value": "shorter"}, {"measurement": "concentration that shifts action potential duration measurements", "setting": "hiPSC-CMLP microtissues", "value": "one"}, {"measurement": "excitability, pacing at 0.5 Hz", "setting": "hiPSC-CMLP microtissues", "value": "fails to evoke action potentials"}, {"measurement": "APD30 and APD50 versus APD80", "setting": "hiPSC-CMLP microtissues; human, 20 min", "value": "APD30 and APD50 were shortened more than APD80"}]}
{"molecule": "TGF-β1: growth factor used for biochemical activation of human cardiac fibroblasts to a myofibroblast-like state", "values": [{"measurement": "increase in normalized αSMA fluorescence compared to control", "setting": "[4]", "value": 1.2, "unit": "fold"}]}
